Assay results reported in patent US9018224B2, “Substituted cyclopropyl compounds useful as GPR119 agonists” (Merck Sharp & Dohme Corp., priority 2011, dated 2015).

target: T1, human GPR119 (Homo sapiens, UniProt Q8TDV5); assay: Measurement of GPR119 signaling by cAMP (LANCE cAMP kit or HTRF) in HEK293 cells transfected with human GPR119; assay type: cell-based; settings: agonist cAMP response in HEK293 cells stably transfected with human GPR119; patent does not say which of the two cAMP formats (LANCE or HTRF)
T1 sequence (Q8TDV5 1-308 limits assumed): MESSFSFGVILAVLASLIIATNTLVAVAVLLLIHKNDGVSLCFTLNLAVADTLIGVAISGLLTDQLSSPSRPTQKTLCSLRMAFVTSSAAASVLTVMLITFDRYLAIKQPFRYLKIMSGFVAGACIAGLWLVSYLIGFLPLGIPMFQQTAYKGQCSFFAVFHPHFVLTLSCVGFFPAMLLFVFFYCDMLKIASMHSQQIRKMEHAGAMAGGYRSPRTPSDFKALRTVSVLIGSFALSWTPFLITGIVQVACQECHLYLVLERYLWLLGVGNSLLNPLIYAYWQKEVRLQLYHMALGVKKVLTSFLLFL
How it was run: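 LANCE TR-FRET cAMP readout; detection with Eu-SA/biotin-cAMP tracer for 3 h, signal converted to cAMP via standard curve, duplicates, 4-parameter fit vs DMSO basal and internal agonist maximum.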

Compound | EC50
O=C(Cc1ccc(OCC[C@@H]2C[C@@H]2C2CCN(c3ncc(Cl)cn3)CC2)cc1F)N1CCc2sc(C3CC3)nc2C1 [Example 190] | 6.4 nM
CCOc1cnc(N2CCC([C@H]3C[C@H]3CCOc3cc(F)c(CC(=O)N4CCC4)c(F)c3)CC2)nc1 [Example 229, 1-(azetidin-1-yl)-2-[4-(2-{(1S,2R)-2-[1-(5-ethoxypyrimidin-2-yl)piperidin-4-yl]cyclopropyl}ethoxy)-2,6-difluorophenyl]ethanone] | 0.14 nM
O=C(Cc1ccc(OCC[C@@H]2C[C@@H]2C2CCN(c3ncc(Cl)cn3)CC2)cc1F)N1CCc2[nH]c(C(F)(F)F)nc2C1 [Example 192] | 2.1 nM
O=C(Cc1ccc(OCC[C@@H]2C[C@@H]2C2CCN(c3ncc(Cl)cn3)CC2)cc1F)N1CCc2scnc2C1 [Example 172] | 0.6 nM
O=C(Cc1ccc(OCC[C@@H]2C[C@@H]2C2CCN(c3ncc(Cl)cn3)CC2)cc1F)N1CCCc2ncccc21 [Example 131] | 8 nM
COCc1cnc(N2CCC([C@H]3C[C@H]3CCOc3ccc(CC(=O)N4CC(O)C4)c(Cl)c3)CC2)nc1 [Example 29] | 2.4 nM
CC1c2ncc(C(F)(F)F)n2CCN1C(=O)Cc1ccc(OCC[C@@H]2C[C@@H]2C2CCN(c3ncc(Cl)cn3)CC2)cc1F (stereo partly shown) [Example 180] | 0.82 nM
CCc1cnc(N2CCC([C@H]3C[C@H]3CCOc3ccc(CC(=O)N(C)C)c(C)c3)CC2)nc1 [Example 19] | 2.3 nM
CCOc1cnc(N2CCC([C@H]3C[C@H]3CCOc3cc(F)c(CC(=O)N4CC(O)C4)c(F)c3)CC2)nc1 [Example 232] | 0.55 nM
COCc1cnc(N2CCC([C@H]3C[C@H]3CCOc3ccc(CC(=O)N4CC(OC)C4)c(Cl)c3)CC2)nc1 [Example 30] | 0.86 nM
COC1CN(C(=O)Cc2ccc(OCC[C@@H]3C[C@@H]3C3CCN(c4ncc(Cl)cn4)CC3)cc2F)C1 [Example 69] | 0.17 nM
CCOc1cnc(N2CCC([C@H]3C[C@H]3CCOc3cc(F)c(CC(=O)N(C)C)c(F)c3)CC2)nc1 [Example 234] | 0.26 nM
O=C(Cc1ccc(OCC[C@@H]2C[C@@H]2C2CCN(c3ncc(Cl)cn3)CC2)cc1F)N1C[C@H](F)[C@@H](F)C1 [Example 75] | 0.78 nM
O=C(Cc1ccc(OCC[C@@H]2C[C@@H]2C2CCN(c3ncc(Cl)cn3)CC2)cc1F)N1CCc2ccncc2C1 [Example 128] | 2.3 nM
O=C(Cc1ccc(OCC[C@@H]2C[C@@H]2C2CCN(c3ncc(Cl)cn3)CC2)cc1F)N1CCc2ncncc2C1 [Example 127] | 1.5 nM
O=C(Cc1ccc(OCC[C@@H]2C[C@@H]2C2CCN(c3ncc(Cl)cn3)CC2)cc1F)N1CCC(F)(F)CC1 [Example 86] | 0.8 nM
CC1c2cccn2CCN1C(=O)Cc1ccc(OCC[C@@H]2C[C@@H]2C2CCN(c3ncc(Cl)cn3)CC2)cc1F (stereo partly shown) [Example 174] | 1.2 nM
CC1c2nc(C(F)(F)F)nn2CCN1C(=O)Cc1ccc(OCC[C@@H]2C[C@@H]2C2CCN(c3ncc(Cl)cn3)CC2)cc1F (stereo partly shown) [Example 177] | 0.6 nM
CCOc1cnc(N2CCC([C@H]3C[C@H]3CCOc3cc(F)c(CC(=O)N4CC(F)C4)c(F)c3)CC2)nc1 [Example 230] | 0.11 nM
COCc1cnc(N2CCC([C@H]3C[C@H]3CCOc3ccc(CC(=O)N4CCC(O)CC4)c(F)c3)CC2)nc1 [Example 56] | 3.7 nM
O=C(Cc1ccc(OCC[C@@H]2C[C@@H]2C2CCN(c3ncc(Cl)cn3)CC2)cc1F)N1CCC1 [Example 60, 1-(azetidin-1-yl)-2-[4-(2-{(1S,2R)-2-[1-(5-chloropyrimidin-2-yl)piperidin-4-yl]cyclopropyl}ethoxy)-2-fluorophenyl]ethanone] | 0.19 nM
O=C(Cc1ccc(OCC[C@@H]2C[C@@H]2C2CCN(c3ncc(Cl)cn3)CC2)cc1)N1CCOCC1 [Example 5] | 3.6 nM
COCc1cnc(N2CCC([C@H]3C[C@H]3CCOc3ccc(CC(=O)N4CC(F)C4)cc3)CC2)nc1 [Example 11] | 2.9 nM
Cc1nnc(Cc2ccc(OCC[C@@H]3C[C@@H]3C3CCN(c4ncc(Cl)cn4)CC3)cc2F)o1 [Example 244, 5-chloro-2-{4-[(1R,2S)-2-(2-{3-fluoro-4-[(5-methyl-1,3,4-oxadizol-2-yl)methyl]phenoxy}ethyl)cyclopropyl]piperidin-1-yl}pyrimidine] | 5.1 nM
CN(CC(C)(C)C)C(=O)Cc1ccc(OCC[C@@H]2C[C@@H]2C2CCN(c3ncc(Cl)cn3)CC2)cc1F [Example 168] | 9.4 nM

Further molecules by falling EC50, results first:

EC50 | Compound
9.7 nM | CC[C@@H](CO)NC(=O)Cc1ccc(OCC[C@@H]2C[C@@H]2C2CCN(c3ncc(Cl)cn3)CC2)cc1F [Example 103]
7.3 nM | COCc1cnc(N2CCC([C@H]3C[C@H]3CCOc3ccc(CC(=O)N4CCn5cnnc5C4)c(F)c3)CC2)nc1 [Example 59]
6.5 nM | CC1(NC(=O)Cc2ccc(OCC[C@@H]3C[C@@H]3C3CCN(c4ncc(Cl)cn4)CC3)cc2F)CCCC1 [Example 94]
3.2 nM | O=C(Cc1ccc(OCC[C@@H]2C[C@@H]2C2CCN(c3ncc(Cl)cn3)CC2)cc1F)N1CCc2nc(C3CC3)oc2C1 [Example 150]
2.8 nM | CC(C)(C)NC(=O)c1nnc2n1CCN(C(=O)Cc1ccc(OCC[C@@H]3C[C@@H]3C3CCN(c4ncc(Cl)cn4)CC3)cc1F)C2 [Example 178]
2.5 nM | O=C(Cc1ccc(OCC[C@@H]2C[C@@H]2C2CCN(c3ncc(Cl)cn3)CC2)cc1F)N1CCCC1CO (stereo partly shown) [Example 108]
2.2 nM | Cc1nc2c([nH]1)CN(C(=O)Cc1ccc(OCC[C@@H]3C[C@@H]3C3CCN(c4ncc(Cl)cn4)CC3)cc1F)C2 [Example 121]
2 nM | CC(C)CN(C)C(=O)Cc1ccc(OCC[C@@H]2C[C@@H]2C2CCN(c3ncc(Cl)cn3)CC2)cc1F [Example 166]
1.7 nM | COc1cnc(N2CCC([C@H]3C[C@H]3CCOc3ccc(CC(=O)N(C)C)c(F)c3)CC2)nc1 [Example 36]
1.5 nM | O=C(Cc1ccc(OCC[C@@H]2C[C@@H]2C2CCN(c3ncc(Cl)cn3)CC2)cc1F)N1CCn2cnnc2C1 [Example 138]
1.3 nM | CN(C(=O)Cc1ccc(OCC[C@@H]2C[C@@H]2C2CCN(c3ncc(Cl)cn3)CC2)cc1F)C1CCS(=O)(=O)C1 (stereo partly shown) [Example 162]
0.97 nM | O=C(Cc1ccc(OCC[C@@H]2C[C@@H]2C2CCN(c3ncc(Cl)cn3)CC2)cc1F)N1Cc2sccc2C(O)C1 (stereo partly shown) [Example 173]
0.94 nM | COCc1ccc(N2CCC([C@H]3C[C@H]3CCOc3ccc(CC(=O)N4CCC4)c(F)c3)CC2)nc1 [Example 237, 1-(azetidin-1-yl)-2-(2-fluoro-4-{2-[(1S,2R)-2-{1-[5-(methoxymethyl)pyridin-2-yl]piperidin-4-yl}cyclopropyl]ethoxy}phenyl)ethanone]
0.76 nM | O=C(Cc1ccc(OCC[C@@H]2C[C@@H]2C2CCN(c3ncc(Cl)cn3)CC2)cc1F)N1CCOCC1 [Example 80]
0.11 nM | COc1cnc(N2CCC([C@H]3C[C@H]3CCOc3cc(F)c(CC(=O)N4CC(OC)C4)c(F)c3)CC2)nc1 [Example 211]
